Data on eight compounds can be found in article PMC4414724 (Chemico-biological interactions, 2015).

Read-outs that look alike come from different tables or passages of the source.

In one data set the target is horse liver ADH1E (Equus caballus, UniProt P00327). The data set is described as follows: Reactions of horse liver ADH1E with 1,5-pentanediol and 5-hydroxypentanal. Type of data set: biochemical. Conditions: for concentration formed in dismutation reaction: 5 mM 5-hydroxypentanal, 1 mM NAD+, 0.01 mg/mL ADH, at 12 h, GC.
The test system of another data set is ethanol elimination. The following applies: cited from earlier work.
In another data set the target is rat liver ADH. Conditions: read-out: in vitro Ki (competitive against alcohol); cited from earlier work.
For a further data set, the system named is cytochrome P-450. Conditions: read-out: in vitro Ki; cited from earlier work.
Another data set relates to methanol metabolism. The following applies: cited from earlier work.
In data set [1] the target is rat liver alcohol dehydrogenase (Rattus norvegicus, UniProt P06757). The experiment in a line: Oxidation of alcohols by isolated rat liver alcohol dehydrogenase. The following applies: for in vitro v rel: calculated from kinetic constants with Michaelis-Menten equation for 5 mM alcohol.
For data set [2] the following is noted: cited from earlier work.
The subject of data set [3] is microsomal ethanol oxidizing system (NADPH-dependent cytochrome P-450 enzymes). The following applies: cited from earlier work.
The conditions of data set [4]: humans; cited from earlier work.
The target in another data set is ADH3 (UniProt P12711). The following applies: cited from earlier work.
In a further data set the test system is rat liver ADH1. The following applies: cited from earlier work.
Setting [5] is: 83 mM potassium phosphate, 40 mM KCl, pH 7.3, 37 °C, 0.5 mM NAD+.
[6] abbreviates: uninhibited rate at higher 4-methylpyrazole and isobutyramide.

Sequence of rat liver alcohol dehydrogenase (P06757 2-376 limits assumed): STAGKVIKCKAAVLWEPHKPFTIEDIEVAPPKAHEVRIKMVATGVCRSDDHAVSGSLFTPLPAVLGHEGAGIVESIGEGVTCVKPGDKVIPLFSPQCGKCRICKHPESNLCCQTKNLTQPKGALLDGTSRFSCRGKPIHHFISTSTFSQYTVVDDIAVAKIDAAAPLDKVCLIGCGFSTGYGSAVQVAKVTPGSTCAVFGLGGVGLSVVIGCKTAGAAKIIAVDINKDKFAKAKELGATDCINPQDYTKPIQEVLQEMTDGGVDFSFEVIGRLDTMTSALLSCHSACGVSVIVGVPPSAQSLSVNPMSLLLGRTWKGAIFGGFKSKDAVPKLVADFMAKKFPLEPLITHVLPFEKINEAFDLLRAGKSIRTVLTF
Sequence of horse liver ADH1E (P00327 2-375 limits assumed): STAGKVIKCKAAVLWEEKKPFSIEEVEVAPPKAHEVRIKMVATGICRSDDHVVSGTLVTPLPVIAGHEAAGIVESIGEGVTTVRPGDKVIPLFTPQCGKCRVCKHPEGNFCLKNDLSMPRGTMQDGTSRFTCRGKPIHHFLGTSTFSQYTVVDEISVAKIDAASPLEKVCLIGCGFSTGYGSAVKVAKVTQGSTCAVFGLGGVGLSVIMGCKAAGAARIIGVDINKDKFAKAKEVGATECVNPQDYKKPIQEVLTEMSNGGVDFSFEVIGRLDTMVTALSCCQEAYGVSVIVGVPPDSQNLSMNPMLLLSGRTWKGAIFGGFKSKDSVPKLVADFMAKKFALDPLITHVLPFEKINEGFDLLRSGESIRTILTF

With `O=C1CCCCO1` [δ-valerolactone], the “concentration formed in dismutation reaction” value on horse liver ADH1E is ~ 2 mM.
Broadly, the Ki is the equilibrium dissociation constant of an inhibitor or competing ligand from its target. On to `Cc1cn[nH]c1` [4-methylpyrazole], for which the “effective, in vivo, competitive Ki” value in the data set on ethanol elimination (in the rat) was 1.4 µmol/kg. Further, in the data set on ethanol elimination (inhibitor dose 1 mmole/kg, ethanol 20 mmole/kg), the “inhibition of elimination of ethanol” value is 87%. Besides, the Ki at rat liver ADH was 0.11 µM; in the data set with cytochrome P-450, 5700 µM.
As for `Nc1nc[nH]n1` [3-Aminotriazole, 3-Amino-1,2,4-triazole], the “inhibition of ethanol metabolism in rats” value in the data set with ethanol elimination was ~ 10%. In the data set with methanol metabolism, the “inhibition of methanol metabolism” value is recorded as ~ 35%.
The term Km denotes the substrate concentration at which the rate is half of its maximum. Turning to `CCO` [Ethanol, ethanol], in data set [1] (setting [5]), the Km is 0.64 ± 0.22 mM and the “V rel (Vmax relative to ethanol as substrate)” value is given as “(1.0)”. Further, the “in vitro v rel” value in data set [1] is 0.88. In data set [1] (pH 7.3, 37 °C, 0.5 mM NAD+), this compound returned a Vrel/K of 1.6. The rate of elimination entry in data set [2] (fed rats) is recorded as “about 8 mmol/kg•h”. In [2] (setting [6]), the “Km of inhibitor-insensitive elimination” value is 21 mmol/kg and the “Vmax of inhibitor-insensitive elimination” value is 2.1 mmol/kg/h. In [3], the Km was 9.6 mM and the “possible contribution to the rate of ethanol metabolism” value is listed as 20–25%. Further, the rate of elimination entry in [4] is recorded as “about 2.2 mmol/kg•h”. The “activity of ADH3” value with ADH3 is “no detectable activity”. The “%ADH (estimated percentage of elimination due to ADH)” value (from inhibition by 1 mmole/kg 4-methylpyrazole) is 89%. Also, for the setting “rat, in vivo”, the “in vivo rate of elimination” value was 7.9 ± 1.0 mmol/kg/h.
As to `OCCCCCO` [1,5-Pentanediol, 1,5-pentanediol], at horse liver ADH1E, the “Vmax relative to the activity on ethanol” value is 1.1 and the “concentration formed in dismutation reaction” value is given as ~ 2 mM. Further, the “V rel (Vmax relative to ethanol as substrate)” value in [1] (setting [5]) turned out to be 3.6 ± 1.3. In data set [1] (pH 7.3, 37 °C, 0.5 mM NAD+), the Vrel/K is listed as 1.0. For the same compound, for the setting “primary alcohols and diols, doses of 5–20 mmole/kg”, the “kinetics of elimination in rats (order)” value is given as “zero-order kinetics”.
As to `CC(C)C(N)=O` [isobutyramide], the “in vivo Ki (uncompetitive)” value in the data set on ethanol elimination was 1 mmol/kg.
Take `CC(O)CCO` (stereo not drawn) [1,3-Butanediol, 1,3-butanediol]: the “in vitro v rel” value in [1] is 0.44. For the setting “data for zero order elimination, rats without inhibitors”, the “in vivo rate of elimination” value amounted to 5.0 ± 0.3 mmol/kg/h. Moreover, the “Rate due to ADH” value (male, rat, in vivo) is given as 4.1. For the same compound, for the setting “male, rat, in vivo, ip”, the “r (fraction of body weight accessible to the alcohol)” value was found to be 0.82 ± 0.05 mL/g. Moreover, the “%ADH (estimated percentage of elimination due to ADH)” value (rat, in vivo) is recorded as 82%.
For `CO` [Methanol], the Km in data set [3] was 22 mM. Also, the “Vmax relative to ethanol” value with rat liver ADH1 is reported as 0.10. The “Rate (zero-order elimination)” value (fed rat, MP+AT, methanol 10 mmole/kg i.p.) is 0.41 mmol/kg/h and the “Rate (zero-order elimination)” value (rat, in vivo, ip) was 0.56 ± 0.01 mmol/kg/h. In addition, the “time required to eliminate the dose” value (rat, in vivo) stood at 15 h.
